The values that follow are results of earlier work, collected in patent US11166911B2, “Parenteral dosage form of amiodarone” (SUN PHARMACEUTICAL INDUSTRIES LIMITED, priority 2016, dated 2021).

Structures are written as SMILES.

For this data set the following is noted: Parmar et al. 1997.

Consider `CCCCc1oc2ccccc2c1C(=O)c1cc(I)c(OCCN(CC)CC)c(I)c1` [Amidarone], for which the “Degradation upon storage at higher temperatures” value was “degrade significantly”.
